Source: patent publication US9783527B2, “Indazole ureas and method of use” (AbbVie Inc., priority 2014, dated 2017)

Legend:
[1] = test system: MIA-induced osteoarthritic pain in rats; test: Osteoarthritic (OA) pain induced by sodium monoiodoacetate (MIA), hind limb grip force; type: in vivo, rat; settings: male Sprague Dawley rats, grip force 20 days after MIA injection
human Nav1.7 = human Nav1.7 (Homo sapiens (Human), UniProt Q15858); test: FRET-based membrane potential assay, recombinant human sodium channel Nav1.7; type: cell-based; settings: HEK293 cells stably expressing recombinant human Nav1.7; depolarization with veratridine (EC80) + scorpion venom
Procedure, shortened: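 IC50 derived by four-parameter Hill fit of percent inhibition of depolarization, measured as peak F440-480/F565-625 ratio over baseline. Stable human Nav1.7 HEK293 cells, dye-loaded with CC2-DMPE and DiSBAC2(3)/VABSC-1 at room temperature, received compound 3 min ahead of veratridine (EC80) plus scorpion venom.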

Sequence of human Nav1.7 (Q15858 whole entry): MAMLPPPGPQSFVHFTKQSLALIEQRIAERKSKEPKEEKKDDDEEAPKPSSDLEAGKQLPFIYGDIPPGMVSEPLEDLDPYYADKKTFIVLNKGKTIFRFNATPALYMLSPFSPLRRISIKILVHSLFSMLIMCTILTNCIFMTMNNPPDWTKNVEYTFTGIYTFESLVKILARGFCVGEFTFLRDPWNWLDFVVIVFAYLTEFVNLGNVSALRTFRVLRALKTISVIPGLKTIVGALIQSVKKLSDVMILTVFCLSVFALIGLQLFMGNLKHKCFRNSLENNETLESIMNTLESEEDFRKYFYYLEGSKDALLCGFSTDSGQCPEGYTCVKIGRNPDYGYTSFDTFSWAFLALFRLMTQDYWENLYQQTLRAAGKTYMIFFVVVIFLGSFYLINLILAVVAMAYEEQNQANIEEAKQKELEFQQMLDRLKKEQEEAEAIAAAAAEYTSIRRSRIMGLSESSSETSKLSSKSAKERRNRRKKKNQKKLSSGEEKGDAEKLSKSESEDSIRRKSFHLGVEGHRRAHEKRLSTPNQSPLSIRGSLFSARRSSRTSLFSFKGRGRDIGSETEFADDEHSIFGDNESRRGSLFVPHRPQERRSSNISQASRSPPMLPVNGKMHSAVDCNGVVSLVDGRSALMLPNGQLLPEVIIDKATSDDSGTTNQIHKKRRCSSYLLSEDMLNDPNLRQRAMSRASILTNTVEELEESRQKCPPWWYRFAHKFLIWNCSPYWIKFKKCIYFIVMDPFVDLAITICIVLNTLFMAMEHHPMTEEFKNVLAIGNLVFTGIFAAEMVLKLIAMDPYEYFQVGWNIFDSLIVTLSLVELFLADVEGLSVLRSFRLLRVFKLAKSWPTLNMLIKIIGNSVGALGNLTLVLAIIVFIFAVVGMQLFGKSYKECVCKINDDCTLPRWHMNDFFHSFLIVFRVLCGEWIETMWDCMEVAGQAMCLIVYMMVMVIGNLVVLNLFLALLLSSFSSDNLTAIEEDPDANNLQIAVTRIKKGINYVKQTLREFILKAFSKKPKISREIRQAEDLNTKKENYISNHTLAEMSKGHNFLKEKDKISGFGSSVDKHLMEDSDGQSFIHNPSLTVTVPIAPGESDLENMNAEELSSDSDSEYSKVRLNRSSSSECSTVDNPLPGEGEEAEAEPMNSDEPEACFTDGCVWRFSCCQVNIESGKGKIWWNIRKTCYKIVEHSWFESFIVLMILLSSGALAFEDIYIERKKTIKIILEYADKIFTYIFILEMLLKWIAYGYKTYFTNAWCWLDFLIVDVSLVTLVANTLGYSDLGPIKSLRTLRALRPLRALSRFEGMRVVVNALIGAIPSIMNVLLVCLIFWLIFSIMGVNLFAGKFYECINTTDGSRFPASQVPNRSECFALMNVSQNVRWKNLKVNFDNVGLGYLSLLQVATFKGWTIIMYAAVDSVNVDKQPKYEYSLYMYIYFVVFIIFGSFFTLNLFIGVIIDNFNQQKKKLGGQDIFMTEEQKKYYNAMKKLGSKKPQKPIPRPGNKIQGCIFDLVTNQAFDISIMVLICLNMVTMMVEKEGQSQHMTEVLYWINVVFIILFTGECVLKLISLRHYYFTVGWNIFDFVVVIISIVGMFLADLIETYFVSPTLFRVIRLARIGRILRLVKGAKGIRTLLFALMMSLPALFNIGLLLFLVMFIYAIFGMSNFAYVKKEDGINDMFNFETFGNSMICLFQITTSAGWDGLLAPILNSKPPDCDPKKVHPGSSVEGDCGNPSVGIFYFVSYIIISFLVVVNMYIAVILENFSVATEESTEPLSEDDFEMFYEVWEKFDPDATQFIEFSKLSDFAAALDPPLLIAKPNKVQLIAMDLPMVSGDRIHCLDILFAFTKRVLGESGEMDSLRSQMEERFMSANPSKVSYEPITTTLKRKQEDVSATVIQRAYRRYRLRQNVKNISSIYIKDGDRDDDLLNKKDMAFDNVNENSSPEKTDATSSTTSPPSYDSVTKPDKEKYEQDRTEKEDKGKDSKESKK

SMILES | OA MPE (%) ([1]; OA dose 30 mg/kg) | IC50 (human Nav1.7) [nM] | OA MPE (%) ([1]; OA dose 10 mg/kg)
O=C(CN1CCN(c2cccc3c2cnn3-c2ccccc2F)C1=O)N[C@@H]1CCOC1 [Example 55, 2-{3-[1-(2-fluorophenyl)-1H-indazol-4-yl]-2-oxoimidazolidin-1-yl}-N-[(3R)-tetrahydrofuran-3-yl]acetamide] | 66 | 2240 | –
C[C@H]1CCCN1C(=O)CN1CCN(c2cccc3c2cnn3-c2ccccc2F)C1=O [Example 15, 1-[1-(2-fluorophenyl)-1H-indazol-4-yl]-3-{2-[(2S)-2-methylpyrrolidin-1-yl]-2-oxoethyl}imidazolidin-2-one] | 68 | 625 | –
Cc1noc(C(C)N2CCN(c3cccc4c3cnn4-c3ccccc3F)C2=O)n1 (racemic) [Example 46, 1-[1-(2-fluorophenyl)-1H-indazol-4-yl]-3-[1-(3-methyl-1,2,4-oxadiazol-5-yl)ethyl]imidazolidin-2-one] | 69 | 1870 | –
Cc1noc(C)c1CN1CCN(c2cccc3c2cnn3-c2ccccc2F)C1=O [Example 27, 1-[(3,5-dimethyl-1,2-oxazol-4-yl)methyl]-3-[1-(2-fluorophenyl)-1H-indazol-4-yl]imidazolidin-2-one] | – | 546 | 57
